Experimental data from patent EP1632479A2, “Piperazine derivatives useful as ccr5 antagonists” (SCHERING CORPORATION, priority 1999, dated 2000).

Target: T1, human CCR5 chemokine receptor (Homo sapiens, UniProt P51681)
T1 construct: expressed in transfected cells; host or cells: NIH 3T3 cells (murine), membranes
Assay: CCR5 membrane binding assay (inhibition of RANTES binding)
Conditions: 125I-RANTES; membranes from NIH 3T3 cells expressing the human CCR5 chemokine receptor; one hour incubation
Description: CCR5 Membrane Binding Assay:
A high throughput screen utilizing a CCR5 membrane binding assay identifies inhibitors of RANTES binding. This assay utilizes membranes prepared from NIH 3T3 cells expressing the human CCR5 chemokine receptor which have the ability to bind to RANTES, a natural ligand for the receptor. […] Compounds are serially diluted over a wide range of 0.001 ug/ml to 1 ug/ml and tested in triplicates. Reaction cocktails are harvested through glass fiber filters, and washed thoroughly.

T1 sequence (P51681 whole entry): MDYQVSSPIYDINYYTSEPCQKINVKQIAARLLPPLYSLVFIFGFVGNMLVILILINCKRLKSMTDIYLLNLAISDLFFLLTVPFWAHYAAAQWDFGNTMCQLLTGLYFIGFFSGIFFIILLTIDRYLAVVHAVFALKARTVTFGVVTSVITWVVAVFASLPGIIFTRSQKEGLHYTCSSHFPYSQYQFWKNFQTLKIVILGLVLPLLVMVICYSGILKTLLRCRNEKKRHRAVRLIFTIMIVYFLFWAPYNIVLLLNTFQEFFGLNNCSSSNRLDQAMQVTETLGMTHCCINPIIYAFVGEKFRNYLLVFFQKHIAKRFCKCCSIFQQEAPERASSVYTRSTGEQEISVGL

Ki	Compound
10.5 nM	Cc1cccc(C)c1C(=O)N1CCC(N2CCN(C(C)c3ccc(I)cc3)C(C)C2)CC1 (centres unmarked) [Example 11]
60 nM	Cc1cccc(C)c1C(=O)N1CCC(N2CCN(C(C)c3ccc(-c4ccccc4)cc3)C(C)C2)CC1 (centres unmarked) [Example 16]
